Consider four compounds from PubChem BioAssay AID651806 (Broad Institute, 2012).

Activity calls are given as the source filed them.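 Rule for the calls: active = AC50 no higher than twice the top valid tested dose, with signal falling as dose rises; inconclusive = flat fit with partial inhibition, or a poor-quality fit; inactive = the rest, plus effects in the rising direction.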

The target in the assay is Kelch-like ECH-associated protein 1 (Homo sapiens) (UniProt Q14145). Nature of the assay: Keap1 Kelch-Nrf2 peptide binding inhibitors, dose response, biochemical, fluorescence polarization, dry powder, set 3 (AID 651806). As to conditions: Keap1 Kelch/FITC-Nrf2 peptide fluorescence polarization; at 50 µM (top of the series). For orientation: Polarisation of emitted light reports the rotation of a fluorescent probe.
Sequence of Kelch-like ECH-associated protein 1 (Homo sapiens) (Q14145 whole entry, looked up): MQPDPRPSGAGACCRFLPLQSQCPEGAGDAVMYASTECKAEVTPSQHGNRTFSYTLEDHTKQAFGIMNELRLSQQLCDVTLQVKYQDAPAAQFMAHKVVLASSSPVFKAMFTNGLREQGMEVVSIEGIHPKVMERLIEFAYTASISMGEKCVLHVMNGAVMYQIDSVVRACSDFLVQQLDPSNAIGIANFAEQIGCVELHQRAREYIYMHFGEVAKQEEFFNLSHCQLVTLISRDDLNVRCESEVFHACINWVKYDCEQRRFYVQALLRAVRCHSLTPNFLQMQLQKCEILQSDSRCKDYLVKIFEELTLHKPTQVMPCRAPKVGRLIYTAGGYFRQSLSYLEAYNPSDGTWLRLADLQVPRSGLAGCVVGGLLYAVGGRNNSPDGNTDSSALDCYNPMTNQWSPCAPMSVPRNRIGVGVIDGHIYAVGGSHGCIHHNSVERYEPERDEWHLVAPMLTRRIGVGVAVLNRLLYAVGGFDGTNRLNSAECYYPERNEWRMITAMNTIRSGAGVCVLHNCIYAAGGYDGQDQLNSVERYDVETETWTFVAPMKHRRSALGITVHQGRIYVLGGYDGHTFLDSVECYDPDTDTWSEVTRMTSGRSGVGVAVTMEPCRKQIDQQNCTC
As for `O=C(NC[C@@H]1c2ccccc2CCN1C(=O)[C@@H]1CCCC[C@@H]1C(=O)O)c1ccccc1CO`, the “activity change, negative = inhibition” value was “inactive”.
Regarding `Cc1ccc(S(=O)(=O)NNc2nc(C(C(=O)OC(C)C)C(=O)C(F)(F)F)nc3ccccc23)cc1` (centres undefined), the “activity change, negative = inhibition” value is “inactive”.
Consider `O=C(O)CC(=O)N1CCc2ccccc2C1CN1C(=O)c2ccccc2C1=O` (centres undefined), for which the “activity change, negative = inhibition” value is “inactive”.
The result for `O=C(NC[C@@H]1c2ccccc2CCN1C(=O)[C@@H]1CCCC[C@@H]1C(=O)O)c1ccccc1` reads “inactive”.
